Test results as given in patent US20070135383A1, “Phospholipase inhibitors, including multi-valent phospholipase inhibitors, and use thereof, including as lumen-localized phospholipase inhibitors” (priority 2005, published 2007).

Legend:
Assay type in all cases: in vivo
[1] = system: LDL receptor knockout mice; assay: LDL receptor knockout mouse model (Example 20); conditions: low fat control diet D12328, 25 or 90 mg/kg/d
From the text: Mice lack an enzyme found in humans, cholesterol ester transfer protein (CETP), which is responsible for the transfer of cholesterol from high density lipoproteins (HDL) to the ApoB-containing lipoproteins such as very low density lipoproteins (VLDL) and low density lipoproteins (LDL). Consequently, LDL cholesterol levels in wild-type mice are very low compared to those seen in humans. The low density lipoprotein receptor (LDLR) is involved with clearing LDL and lipoprotein remnants containing apoE. If the LDLR is inactivated, LDL cholesterol levels rise to levels seen in humans. On a normal rodent diet, the LDL cholesterol levels in LDLR deficient mice are elevated compared to wild-type mice. […]
In these studies and the accompanying figures, Diet D12328 from Research Diets is referred to as the “Low Fat” or Control diet, while Diet D12079B from Research Diets is referred to as the “Western” diet. […] The Test Article content was calculated such that ad libitum consumption by the animals would deliver doses (in mg of Test Article per Kg animal weight per day) approximating those listed in Table 12.
Animals were maintained on the diets for eight weeks. Body weights were recorded weekly. […] The serum was analyzed for total cholesterol, LDL cholesterol, HDL cholesterol, triglycerides (TG), free fatty acid (FFA) and lysophospholipid (LPC) content. […]

[2] = system: mice; assay: Toxicology, daily oral gavage for 5 consecutive days (Example 23)
From the text: The purpose of this study was to evaluate the toxicity of indole and indole-related Test Articles when administered daily via oral gavage to mice for 5 consecutive days.
Assessment of toxicity was based on mortality; clinical signs, body weight, food consumption, clinical pathology, and macroscopic pathology data.

[3] = system: C57BL/6J mouse model of obesity; assay: Mouse diet-induced obesity model (Example 19); conditions: low fat control diet D12328, 25 or 90 mg/kg/d
From the text: The high-fat diet-fed C57BL/6J mouse model of human diabetes, originally introduced by Surwit and colleagues (Surwit, R S, et al. (1988) “Diet-induced type II diabetes in C57BL/6J mice”, Diabetes 37: 1163-1167) is a widely accepted, clinically relevant, polygenic model that induces obesity, dyslipidemia, glucose- and insulin-resistance as early as 3 weeks after commencing the high fat diet (Winzell, M S and Ahren, B (2004) “The high-fat diet-fed mouse: a model for studying mechanisms and treatment of impaired glucose tolerance and type 2 diabetes”, Diabetes 53 Suppl 3: S215-219). This model was used to investigate the effects of indole and indole-related Test Articles. Avandia (rosiglitazone) was used as a control Test Article. […]
In these studies and the accompanying figures, Diet D12328 from Research Diets is referred to as the “Low Fat” or Control diet/chow, while Diet D12331 from Research Diets is referred to as the “High Fat” diet. […] The Test Article content was calculated such that ad libitum consumption by the animals would deliver doses (in mg of Test Article per kg animal weight per day) approximating those listed in Table 11.
Animals were maintained on the diets for up to eleven weeks. Body weights were recorded weekly. […] The serum was analyzed for glucose, total cholesterol, triglycerides (TG) and lysophospholipid (LPC) content. […]

## Cc1c(C(=O)C(N)=O)c2c(OCC(=O)O)cccc2n1CCCCCCCCCCCCOc1ccc(C(C)(C)c2ccc(OCCCCCCCCCCCCn3c(C)c(C(=O)C(N)=O)c4c(OCC(=O)O)cccc43)cc2)cc1 [ILY4011]
[1]
  effect of test article in animals fed low fat control diet: No or little effect
[2]
  clinical pathology data, treated groups vs vehicle control group: no differences
[3]
  effect of test article in animals fed low fat control diet: No or little effect
